Results from PubChem BioAssay (NCI).
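Grown in 96-well plates, cells were treated for 48 hours with each compound at five concentrations. Insufficient inhibition: endpoint recorded as highest concentration tested. TGI is the concentration that stops growth completely.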

Assays:
Test in all cases: growth of human tumour cells (NCI), 48 h
786-0 renal = system: 786-0 renal
A498 renal = system: A498 renal
A549 NSCLC = system: A549 NSCLC
ACHN renal = system: ACHN renal
BT-549 breast = system: BT-549 breast
CAKI-1 renal = system: CAKI-1 renal
CCRF-CEM leukemia = system: CCRF-CEM leukemia
COLO 205 colon = system: COLO 205 colon
DU-145 prostate = system: DU-145 prostate
EKVX NSCLC = system: EKVX NSCLC
HCT-116 colon = system: HCT-116 colon
HCT-15 colon = system: HCT-15 colon
HOP-62 NSCLC = system: HOP-62 NSCLC
HOP-92 NSCLC = system: HOP-92 NSCLC
HS 578T breast = system: HS 578T breast
HT29 colon = system: HT29 colon
IGROV1 ovarian = system: IGROV1 ovarian
K-562 leukemia = system: K-562 leukemia
KM12 colon = system: KM12 colon
LOX IMVI melanoma = system: LOX IMVI melanoma
M14 melanoma = system: M14 melanoma
MALME-3M melanoma = system: MALME-3M melanoma
MCF7 breast = system: MCF7 breast
MDA-MB-231 breast = system: MDA-MB-231 breast
MDA-MB-435 = system: MDA-MB-435
MDA-N = system: MDA-N
NCI-H226 lung = system: NCI-H226 lung
NCI-H23 lung = system: NCI-H23 lung
NCI-H460 lung = system: NCI-H460 lung
NCI-H522 lung = system: NCI-H522 lung
NCI/ADR-RES ovarian = system: NCI/ADR-RES ovarian
OVCAR-3 ovarian = system: OVCAR-3 ovarian
OVCAR-4 ovarian = system: OVCAR-4 ovarian
OVCAR-5 ovarian = system: OVCAR-5 ovarian
OVCAR-8 ovarian = system: OVCAR-8 ovarian
PC-3 prostate = system: PC-3 prostate
RPMI-8226 leukemia = system: RPMI-8226 leukemia
RXF 393 renal = system: RXF 393 renal
SF-268 CNS = system: SF-268 CNS
SF-295 CNS = system: SF-295 CNS
SF-539 CNS = system: SF-539 CNS
SK-MEL-2 melanoma = system: SK-MEL-2 melanoma
SK-MEL-28 melanoma = system: SK-MEL-28 melanoma
SK-MEL-5 melanoma = system: SK-MEL-5 melanoma
SK-OV-3 ovarian = system: SK-OV-3 ovarian
SN12C renal = system: SN12C renal
SNB-19 CNS = system: SNB-19 CNS
SNB-75 CNS = system: SNB-75 CNS
SR leukemia = system: SR leukemia
SW-620 colon = system: SW-620 colon
T-47D breast = system: T-47D breast
TK-10 renal = system: TK-10 renal
U251 CNS = system: U251 CNS
UACC-257 melanoma = system: UACC-257 melanoma
UACC-62 melanoma = system: UACC-62 melanoma
UO-31 renal = system: UO-31 renal

Cn1c(=O)c2[nH]c(CCCCc3nc4c([nH]3)c(=O)n(C)c(=S)n4C)nc2n(C)c1=S
TGI (786-0 renal): > 100 µM | TGI (A498 renal): > 100 µM | TGI (A549 NSCLC): > 100 µM | TGI (ACHN renal): > 100 µM | TGI (BT-549 breast): > 100 µM | TGI (CAKI-1 renal): > 100 µM | TGI (CCRF-CEM leukemia): > 100 µM | TGI (COLO 205 colon): > 100 µM | TGI (DU-145 prostate): > 100 µM | TGI (EKVX NSCLC): > 100 µM | TGI (HCT-116 colon): > 100 µM | TGI (HCT-15 colon): > 100 µM | TGI (HOP-62 NSCLC): > 100 µM | TGI (HOP-92 NSCLC): > 100 µM | TGI (HS 578T breast): > 100 µM | TGI (HT29 colon): > 100 µM | TGI (IGROV1 ovarian): > 100 µM | TGI (K-562 leukemia): > 100 µM | TGI (KM12 colon): > 100 µM | TGI (LOX IMVI melanoma): > 100 µM | TGI (M14 melanoma): > 100 µM | TGI (MALME-3M melanoma): > 100 µM | TGI (MCF7 breast): > 100 µM | TGI (MDA-MB-231 breast): > 100 µM | TGI (MDA-MB-435): > 100 µM | TGI (MDA-N): > 100 µM | TGI (NCI-H226 lung): > 100 µM | TGI (NCI-H23 lung): > 100 µM | TGI (NCI-H460 lung): > 100 µM | TGI (NCI-H522 lung): > 100 µM | TGI (NCI/ADR-RES ovarian): > 100 µM | TGI (OVCAR-3 ovarian): > 100 µM | TGI (OVCAR-4 ovarian): > 100 µM | TGI (OVCAR-5 ovarian): > 100 µM | TGI (OVCAR-8 ovarian): > 100 µM | TGI (PC-3 prostate): > 100 µM | TGI (RPMI-8226 leukemia): > 100 µM | TGI (RXF 393 renal): > 100 µM | TGI (SF-268 CNS): > 100 µM | TGI (SF-295 CNS): > 100 µM | TGI (SF-539 CNS): > 100 µM | TGI (SK-MEL-2 melanoma): > 100 µM | TGI (SK-MEL-28 melanoma): > 100 µM | TGI (SK-MEL-5 melanoma): > 100 µM | TGI (SK-OV-3 ovarian): > 100 µM | TGI (SN12C renal): > 100 µM | TGI (SNB-19 CNS): > 100 µM | TGI (SNB-75 CNS): 53.1 µM | TGI (SR leukemia): > 100 µM | TGI (SW-620 colon): > 100 µM | TGI (T-47D breast): > 100 µM | TGI (TK-10 renal): > 100 µM | TGI (U251 CNS): > 100 µM | TGI (UACC-257 melanoma): > 100 µM | TGI (UACC-62 melanoma): > 100 µM | TGI (UO-31 renal): > 100 µM
